Measurements taken from paper PMC4076210, “Discovery of Novel AKT Inhibitors with Enhanced Anti-Tumor Effects in Combination with the MEK Inhibitor” (PLoS ONE, 2014).

What was measured:
KDR(h) = biological target: T1, KDR(h) (Homo sapiens, UniProt P35968); test: Kinase panel; format: biochemical; conditions: read-out: % Inhibition
T1 construct: purchased Millipore KinaseProfiler

PKA = PKA (Homo sapiens, UniProt P17612); test: Kinase IC50 assay; format: biochemical
Pyk2(h) = biological target: T2, Pyk2(h) (Homo sapiens, UniProt Q14289); test: Kinase panel; format: biochemical; conditions: read-out: % Inhibition
T2 construct: purchased Millipore KinaseProfiler
T2 sequence (Q14289 whole entry): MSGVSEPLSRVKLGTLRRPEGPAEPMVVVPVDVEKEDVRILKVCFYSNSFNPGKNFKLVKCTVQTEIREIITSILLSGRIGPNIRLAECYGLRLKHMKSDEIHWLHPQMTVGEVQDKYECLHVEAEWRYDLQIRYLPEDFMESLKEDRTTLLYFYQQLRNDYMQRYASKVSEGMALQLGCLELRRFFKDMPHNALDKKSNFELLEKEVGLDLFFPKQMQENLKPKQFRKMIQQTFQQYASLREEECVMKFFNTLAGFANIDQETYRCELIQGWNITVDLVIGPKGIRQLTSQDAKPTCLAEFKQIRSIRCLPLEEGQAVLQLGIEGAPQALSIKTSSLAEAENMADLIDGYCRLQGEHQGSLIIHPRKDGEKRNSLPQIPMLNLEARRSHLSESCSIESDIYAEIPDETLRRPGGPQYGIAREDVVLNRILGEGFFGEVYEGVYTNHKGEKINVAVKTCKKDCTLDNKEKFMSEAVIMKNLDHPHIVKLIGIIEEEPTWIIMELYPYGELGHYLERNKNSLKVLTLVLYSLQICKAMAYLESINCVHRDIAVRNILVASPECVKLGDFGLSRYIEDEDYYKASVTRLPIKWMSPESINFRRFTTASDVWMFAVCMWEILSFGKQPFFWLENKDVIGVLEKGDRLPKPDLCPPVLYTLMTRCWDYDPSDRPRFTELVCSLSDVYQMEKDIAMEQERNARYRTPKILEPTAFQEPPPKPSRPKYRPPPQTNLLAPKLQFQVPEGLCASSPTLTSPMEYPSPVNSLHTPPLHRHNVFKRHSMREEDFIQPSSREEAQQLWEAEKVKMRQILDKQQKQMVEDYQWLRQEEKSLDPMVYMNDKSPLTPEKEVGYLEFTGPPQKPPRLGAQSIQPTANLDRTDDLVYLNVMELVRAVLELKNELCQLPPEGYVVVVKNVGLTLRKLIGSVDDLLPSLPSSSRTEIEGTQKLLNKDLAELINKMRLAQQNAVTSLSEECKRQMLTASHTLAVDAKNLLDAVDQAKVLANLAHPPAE

IR(h) = biological target: T3, IR(h) (Homo sapiens, UniProt P06213); test: Kinase panel; format: biochemical; conditions: read-out: % Inhibition
T3 construct: purchased Millipore KinaseProfiler
T3 sequence (P06213 28-1382): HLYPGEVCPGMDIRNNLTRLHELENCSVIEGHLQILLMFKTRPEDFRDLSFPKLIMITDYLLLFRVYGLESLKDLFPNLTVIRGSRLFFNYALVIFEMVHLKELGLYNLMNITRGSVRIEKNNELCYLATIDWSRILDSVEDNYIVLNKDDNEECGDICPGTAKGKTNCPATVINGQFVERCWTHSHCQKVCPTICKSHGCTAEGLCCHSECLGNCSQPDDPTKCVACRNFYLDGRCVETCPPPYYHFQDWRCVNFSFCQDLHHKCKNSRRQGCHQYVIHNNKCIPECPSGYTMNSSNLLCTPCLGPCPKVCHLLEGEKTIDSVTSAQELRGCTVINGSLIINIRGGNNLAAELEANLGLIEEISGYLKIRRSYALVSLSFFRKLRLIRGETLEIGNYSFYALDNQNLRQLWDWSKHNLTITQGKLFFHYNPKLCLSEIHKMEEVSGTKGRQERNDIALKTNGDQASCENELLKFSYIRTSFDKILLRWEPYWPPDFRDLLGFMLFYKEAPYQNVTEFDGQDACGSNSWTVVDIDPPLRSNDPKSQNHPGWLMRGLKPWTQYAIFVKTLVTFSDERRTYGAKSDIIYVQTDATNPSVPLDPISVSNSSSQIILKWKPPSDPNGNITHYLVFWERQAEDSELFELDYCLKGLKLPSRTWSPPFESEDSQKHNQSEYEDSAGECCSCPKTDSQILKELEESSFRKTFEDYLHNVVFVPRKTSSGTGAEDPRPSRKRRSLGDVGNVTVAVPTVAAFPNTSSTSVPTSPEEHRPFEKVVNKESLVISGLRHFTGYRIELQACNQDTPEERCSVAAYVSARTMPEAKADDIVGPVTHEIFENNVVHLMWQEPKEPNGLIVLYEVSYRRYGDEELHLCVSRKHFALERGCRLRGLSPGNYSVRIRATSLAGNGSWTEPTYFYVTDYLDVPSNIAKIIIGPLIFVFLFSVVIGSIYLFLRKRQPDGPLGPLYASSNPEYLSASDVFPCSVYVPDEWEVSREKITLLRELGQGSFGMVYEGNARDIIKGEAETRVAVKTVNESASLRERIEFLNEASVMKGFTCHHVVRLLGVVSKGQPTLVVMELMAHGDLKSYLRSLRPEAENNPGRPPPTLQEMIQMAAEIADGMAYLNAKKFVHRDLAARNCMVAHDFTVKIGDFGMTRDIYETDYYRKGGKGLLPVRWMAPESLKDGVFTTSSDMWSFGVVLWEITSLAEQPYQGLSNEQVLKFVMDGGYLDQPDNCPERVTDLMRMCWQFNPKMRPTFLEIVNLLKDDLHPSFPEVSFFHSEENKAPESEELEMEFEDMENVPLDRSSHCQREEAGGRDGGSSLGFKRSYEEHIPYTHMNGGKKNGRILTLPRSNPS

[1] = tested on: hematological tumor cell lines; test: 3-day proliferation assay (CellTiter-Glo); format: cell-based, human; conditions: for IC50: Homo sapiens
Method in brief: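 Growth inhibition was read by CellTiter-Glo after 3 days' exposure to 0–30 µM compound and expressed against DMSO controls. EC50 was derived by 4- or 6-parameter fitting. Cells were mostly grown in RPMI plus 10% FBS, some in vendor-specified media.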

T1 sequence (P35968 20-1356): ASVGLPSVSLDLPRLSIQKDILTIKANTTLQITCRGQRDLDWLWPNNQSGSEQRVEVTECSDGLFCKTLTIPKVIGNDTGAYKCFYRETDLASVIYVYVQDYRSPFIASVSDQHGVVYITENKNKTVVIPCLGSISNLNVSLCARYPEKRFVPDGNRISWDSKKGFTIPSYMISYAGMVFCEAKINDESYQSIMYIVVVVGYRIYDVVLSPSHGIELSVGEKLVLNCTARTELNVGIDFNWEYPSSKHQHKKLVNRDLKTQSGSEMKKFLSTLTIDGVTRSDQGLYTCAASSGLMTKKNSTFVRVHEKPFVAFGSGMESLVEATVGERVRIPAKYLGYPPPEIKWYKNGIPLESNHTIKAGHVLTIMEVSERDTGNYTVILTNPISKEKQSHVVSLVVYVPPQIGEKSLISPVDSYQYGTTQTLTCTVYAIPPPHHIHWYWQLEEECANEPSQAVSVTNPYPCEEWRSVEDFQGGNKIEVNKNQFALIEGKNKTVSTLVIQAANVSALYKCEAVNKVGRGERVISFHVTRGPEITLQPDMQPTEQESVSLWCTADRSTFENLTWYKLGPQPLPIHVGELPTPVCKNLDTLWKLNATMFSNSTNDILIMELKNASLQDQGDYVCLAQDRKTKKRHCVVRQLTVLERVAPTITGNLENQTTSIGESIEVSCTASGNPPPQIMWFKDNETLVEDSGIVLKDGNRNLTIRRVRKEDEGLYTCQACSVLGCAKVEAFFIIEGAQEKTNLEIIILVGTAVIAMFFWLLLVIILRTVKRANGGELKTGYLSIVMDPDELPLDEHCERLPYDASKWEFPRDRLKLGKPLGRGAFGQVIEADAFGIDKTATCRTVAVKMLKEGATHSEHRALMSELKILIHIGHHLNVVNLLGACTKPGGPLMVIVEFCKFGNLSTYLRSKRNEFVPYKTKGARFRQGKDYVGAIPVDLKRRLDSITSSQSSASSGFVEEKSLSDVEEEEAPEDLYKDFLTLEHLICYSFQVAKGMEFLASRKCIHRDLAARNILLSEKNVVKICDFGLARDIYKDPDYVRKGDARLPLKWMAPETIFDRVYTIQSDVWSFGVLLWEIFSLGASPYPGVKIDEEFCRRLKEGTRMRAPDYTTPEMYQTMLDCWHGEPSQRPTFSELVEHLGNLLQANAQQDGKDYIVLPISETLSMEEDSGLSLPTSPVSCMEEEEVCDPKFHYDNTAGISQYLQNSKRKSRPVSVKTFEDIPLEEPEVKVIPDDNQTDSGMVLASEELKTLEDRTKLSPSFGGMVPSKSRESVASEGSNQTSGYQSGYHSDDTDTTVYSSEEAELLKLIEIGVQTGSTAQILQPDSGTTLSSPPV

Q: What does the source list for `Cn1ncc(Cl)c1-c1cc(C(=O)N[C@H](CN)Cc2ccc(F)c(F)c2)oc1Cl` [GSK2141795]?
A: inhibition at 0.5 µM (KDR(h); 0.5 µM): -6%; inhibition at 10 µM (KDR(h); 10 µM): -3%; IC50 (PKA): 2 nM; inhibition at 0.5 µM (Pyk2(h); 0.5 µM): 1%; inhibition at 10 µM (Pyk2(h); 10 µM): 16%; inhibition at 0.5 µM (IR(h); 0.5 µM): -8%; inhibition at 10 µM (IR(h); 10 µM): 41%; hematological cell lines sensitive (EC50<1 µM) ([1]; 112 cell lines, 3 days, CTG): 81%; IC50 ([1]; 1A2, 1A2 cell line, Burkitt's Lymphoma, B Cell): 93 nM; IC50 ([1]; 697 cell line, ALL, pre-B Cell): 300 nM; IC50 ([1]; ARH-77, ARH77 cell line, Multiple Myeloma, B Cell): 155 nM; IC50 ([1]; B-cell, BDCM cell line, AML, B Cell): 14 nM; IC50 ([1]; B-cell, CESS cell line, AML, B Cell): 9 nM; IC50 ([1]; B-cell, CRO-AP3 cell line, Primary Effusion Lymphoma (PEL), B Cell): 113 nM; IC50 ([1]; B-cell, EHEB cell line, CLL, B Cell): 51 nM; IC50 ([1]; B-cell, HKB-11 cell line, Burkitt's Lymphoma, B Cell): 52 nM; IC50 ([1]; B-cell, HS-Sultan cell line, Burkitt's Lymphoma, B Cell): 226 nM; IC50 ([1]; B-cell, KARPAS-231 cell line, ALL, B Cell): 36 nM; IC50 ([1]; B-cell, MC/CAR cell line, Multiple Myeloma, B Cell): 40 nM; IC50 ([1]; B-cell, MN60 cell line, ALL, B Cell): 653 nM; IC50 ([1]; B-cell, Namalwa cell line, Burkitt's Lymphoma, B Cell): 300 nM; IC50 ([1]; B-cell, SD-1 cell line, ALL, B Cell): 15 nM; IC50 ([1]; B-cell, Tanoue cell line, ALL, B Cell): 1460 nM; IC50 ([1]; BC1, BC1 cell line, Burkitt's Lymphoma, B Cell): 465 nM; IC50 ([1]; BC-3, BC3 cell line, Burkitt's Lymphoma, B Cell): 3130 nM; IC50 ([1]; BV-173, BV173 cell line, CML, pre-B Cell): 860 nM; IC50 ([1]; CA46, CA46 cell line, Burkitt's Lymphoma, B Cell): 948 nM; IC50 ([1]; CCRF-CEM, CCRFCEM cell line, ALL, T Cell): 146 nM; IC50 ([1]; CCRF-SB, CCRFSB cell line, ALL, B Cell): 20 nM; IC50 ([1]; CEM/C1, CEM/C1 cell line, ALL, T Cell): 30 nM; IC50 ([1]; CEM/C2, CEM/C2 cell line, ALL, T Cell): 22 nM; IC50 ([1]; CML-T1, CML-T1 cell line, CML, T Cell): 5230 nM; IC50 ([1]; CRO-AP5, CRO-AP5 cell line, Primary Effusion Lymphoma (PEL), B Cell): 34 nM; IC50 ([1]; DB, DB cell line, Non-Hodgkin's Lymphoma, B Cell): 5220 nM; IC50 ([1]; DG-75, DG75 cell line, Burkitt's Lymphoma, B Cell): 14800 nM; IC50 ([1]; DOHH-2, DOHH-2 cell line, Non-Hodgkin's Lymphoma, B Cell): 10.5 nM; IC50 ([1]; Daudi, DAUDI cell line, Burkitt's Lymphoma, B Cell): 269 nM; IC50 ([1]; EB1, EB1 cell line, Burkitt's Lymphoma, B Cell): 49 nM; IC50 ([1]; EB2, EB2 cell line, Burkitt's Lymphoma, B Cell): 256 nM; IC50 ([1]; EB-3, EB3 cell line, Burkitt's Lymphoma, B Cell): 1760 nM; IC50 ([1]; EM-2, EM2 cell line, CML, Unspecified): 1650 nM; IC50 ([1]; Farage cell line, Non-Hodgkin's Lymphoma, B Cell): 103 nM; IC50 ([1]; GA-10, GA-10 cell line, Burkitt's Lymphoma, B Cell): 17 nM; IC50 ([1]; GDM-1, GDM-1 cell line, AML, Monoblast): 3070 nM; IC50 ([1]; HD-MY-Z cell line, Hodgkin's Lymphoma, Unspecified): 8290 nM; IC50 ([1]; HEL 92.1.7, HEL92.1.7 cell line, AML, Erythroleukemia): 7760 nM; IC50 ([1]; HH, HH cell line, Non-Hodgkin's Lymphoma (CTCL), T Cell): 85 nM; IC50 ([1]; HL-60, HL-60 cell line, AML, Myeloblast): 3720 nM; IC50 ([1]; HSB2, HSB2 cell line, ALL, T Cell): 576 nM; IC50 ([1]; HT, HT cell line, Burkitt's Lymphoma, B Cell): 93 nM; IC50 ([1]; HuT78, HuT78 cell line, Non-Hodgkin's Lymphoma (CTCL), T Cell): 147 nM; IC50 ([1]; J.gamma1, J.Gamma-1 cell line, ALL, T Cell): 21 nM; IC50 ([1]; JIYOYE, JIYOYE cell line, Burkitt's Lymphoma, B Cell): 536 nM; IC50 ([1]; JM1, JM1 cell line, Burkitt's Lymphoma, pre-B Cell): 212 nM; IC50 ([1]; JVM13, JVM13 cell line, CLL, B Cell): 84 nM; IC50 ([1]; JVM-2, JVM2 cell line, CLL, B Cell): 13 nM; IC50 ([1]; JVM-3, JVM-3 cell line, CLL, B Cell): 8480 nM; IC50 ([1]; Jurkat, Jurkat cell line, ALL, T Cell): 17 nM; IC50 ([1]; K562, K562 cell line, CML, Lymphoblast): 9780 nM; IC50 ([1]; KG-1, KG-1 cell line, AML, B Cell): 281 nM; IC50 ([1]; KU812, Ku812 cell line, CML, Basophilic Leukocyte): 72 nM; IC50 ([1]; Kasumi 1, Kasumi-1 cell line, AML, Myeloblast): 22.3 nM; IC50 ([1]; Kasumi-2 cell line, AML, Myeloblast): 457 nM
